In brackets after ≈: the same amount, converted by molar mass. Marks after values point to notes of the source that are not given here.
Legend:
normal human fibroblasts = experiment: Human fibroblasts collagen synthesis assay (14C-proline incorporation, collagenase-labile counts); assay type: cell-based; design: reduction of the amount of collagen synthesized: dose or concentration left out as unconfirmed; conditions: for Collagen (DPM/cell) with TGF β 1: with TGF β 1 (10 ng/ml), control 9945 +/− 602; for Collagen (DPM/cell) without TGF β 1: control 5267 +/− 1079
Procedure: Human Fibroblasts Collagen Synthesis Assay
Human fibroblasts were grown in DMEM (10% FCS) in 24-wells plates to approximately 50% confluence. 5-azacytidine (from Sigma) was added for 5 hrs of 37° C. TGF-β1 was added (10 ng/ml) for 2 hours (hrs) at 37° C. Then, L-[U-14C]-proline solution (specific radioactivity 269 mCi/mmol) was added (1.25 μCi/well) and incubated for 20 hrs at 37° C. The cells were then washed with 5 mM proline in PBS and 5 mM proline in 70% methanol and incubated at […] for 20 hrs. […] After 20 hrs, the collagenase treated cultures were centrifuged and a new collagenase solution was added to the cells. The cultures were incubated with the enzyme for an additional 20 hrs. Proline incorporated into protein and released by collagenase treatment is defined as “collagen”. Incorporation of labeled proline into collagen was evaluated by scintillation counting of supernatants. In parallel, the cultures were checked for vitality using a 3-(4, 5-dimethylthiazol-2-yl)-2, 5-diphenyltetrazolium bromide (MTT) reaction. Each concentration of 5-azacytidine was analyzed (n=6), and the effect of 5-azacytidine on collagen synthesis were expressed as averaged DPM per number of viable cells +/− standard deviation.
Human fibroblasts were grown to about 50% confluence and exposed to medium with or without TGF β.

[1] = tested on: Human squamous cell carcinoma line (SCL-1) cells; experiment: Cell death in human squamous cell carcinoma line with or without UVB (MTT); assay type: cell-based; conditions: for % Cell Death with UV: UV alone 22 +/− 0.1
Procedure: Determination of Cell Death in Response to 5-azacytidine in Human Squamous Cell Carcinoma Line
Human squamous cell carcinoma line (SCL-1) cells were grown in DMEM medium with 10% FCS. 5-azacytidine was added at the indicated concentrations after the cells reached 100% confluence. The cultures were incubated for 24 hrs at 37° C. and then washed in Hepes buffer (pH=7.4) with isotonic salt and exposed to UVB radiation. Cell death was determined using MTT [3-(4, 5-dimethylthiazol-2-yl)-2, 5-diphenyltetrazolium bromide] kit obtained from Sigma. Each concentration of the drug was tested in six wells and the degree of inhibition (vs. controls of untreated cultures) was given as an average (% cell death +/−standard deviation).
The human squamous cells (SCL-1) were grown to about 50% confluence. The cultures were treated with minimal amount of 5-azacytidine, UV radiation, or the combination and cell viability was quantified. […] The exposure of the cells to UV, in the absence of the drug induced a cytotoxic effect in about 22% of the cells. Together, the combination of both UV and 5-azacytidine induced cell death at about 50% of the cancer cells.

human fibroblasts = experiment: Proliferation of human fibroblasts in culture; assay type: cell-based; conditions: previously found by applicant
collagen type IV gene = conditions: transformed rat liver cells; cited from earlier work
alpha 2 collagen gene [2] = conditions: teratocarcinoma F9 cells; cited from earlier work
[3] = tested on: Pro collagen alpha I gene; conditions: human rhabdomyosarcoma cells; cited from earlier work
alpha 2 collagen gene [4] = conditions: resistant cells such as HaCaT, Hela and HepG2; cited from earlier work
collagen gene expression = conditions: human cancer cells, including fibrosarcomas and breast carcinoma; cited from earlier work
pieces of human skin = experiment: Incorporation of labeled proline into pieces of human skin (collagen biosynthesis, skin organ culture); conditions: for Collagen (DPM/mg tissue): control 333
[5] = Azacytidine 4.8 ug/ml, listed as Azacytidine

IC50 (pieces of human skin; Homo sapiens, read-out: IC50 of collagen biosynthesis in human skin): ~25 µg/mL (≈ 102 µM)
Compound: Nc1ncn([C@@H]2O[C@H](CO)[C@@H](O)[C@H]2O)c(=O)n1 [5-azacytidine]
Collagen (DPM/cell) with TGF β 1 (normal human fibroblasts; Azacytidine 1 μg/ml): 8259 +/− 482 DPM/cell
Collagen (DPM/cell) without TGF β 1 (normal human fibroblasts; Azacytidine 1 μg/ml): 5306 +/− 717 DPM/cell
Collagen (DPM/cell) with TGF β 1 (normal human fibroblasts; Azacytidine 5 μg/ml): 6801 +/− 1359* DPM/cell
Collagen (DPM/cell) without TGF β 1 (normal human fibroblasts; Azacytidine 5 μg/ml): 4015 +/− 706* DPM/cell
Collagen (DPM/cell) with TGF β 1 (normal human fibroblasts; Azacytidine 25 μg/ml): 5183 +/− 816* DPM/cell
Collagen (DPM/cell) without TGF β 1 (normal human fibroblasts; Azacytidine 25 μg/ml): 2323 +/− 139* DPM/cell
IC50 (normal human fibroblasts; Fibroblast, stated as similar to the IC50 in human skin, read-out: IC50 of collagen biosynthesis in cultured human fibroblasts): ~25 µg/mL (≈ 102 µM)
effect on TGF β upregulation of collagen biosynthesis (normal human fibroblasts; TGF β stimulated fibroblasts): inhibited in a dose dependent manner the ability of TGF β to upregulate collagen biosynthesis
reduction of the amount of collagen synthesized (normal human fibroblasts; concentration of about 25, basal (without TGF β)): approximately 55%
effect on basal collagen produced (normal human fibroblasts; without TGF β): inhibited the collagen produced in a dose dependent manner
% Cell Death with UV ([1]; Azacytidine 0.53 ug/ml): 19 +/− 0.5%
% Cell Death without UVB ([1]; Azacytidine 0.53 ug/ml): 2 +/− 0.7* %
% Cell Death with UV ([1]; Azacytidine 1.6 ug/ml): 21 +/− 0.6%
% Cell Death without UVB ([1]; Azacytidine 1.6 ug/ml): 5 +/− 0.3* %
% Cell Death with UV ([1]; Azacytidine 4.8 ug/ml): about 50%
% Cell Death with UV [1, 5]: 50 +/− 0.2%
% Cell Death without UVB ([1]; Azacytidine 4.8 ug/ml): about 29%
% Cell Death without UVB [1, 5]: 29 +/− 13* %
IC50 ([1]; Homo sapiens, SCL-1, 5-Azacytidine alone (no UV)): 11 µg/mL
combined effect of photo damage and drug on viability ([1]; UV plus 5-azacytidine): additive effect
effect on proliferation of fibroblasts in culture (human fibroblasts): inhibits the proliferation
effect on transcription of collagen type IV gene (collagen type IV gene): increases transcription of the collagen type IV gene
effect on transcription of alpha 2 collagen gene (alpha 2 collagen gene [2]): induces transcription of alpha 2 collagen gene
effect on transcription of Pro collagen alpha I gene [3]: transcriptional activation of the Pro collagen alpha I gene
effect on alpha 2 collagen gene (alpha 2 collagen gene [4]): reactivated
effect on collagen gene expression (collagen gene expression): increased or reactivated collagen gene expression
effect on collagen biosynthesis by human skin (pieces of human skin): inhibited collagen biosynthesis in a dose dependent manner
% Inhibition of collagen (pieces of human skin; Azacytidine 6.25 ug/ml): 40%
Collagen (DPM/mg tissue) (pieces of human skin; Azacytidine 6.25 ug/ml): 199 +/− 34* DPM/mg tissue
% Inhibition of collagen (pieces of human skin; Azacytidine 25 ug/ml): 48%
Collagen (DPM/mg tissue) (pieces of human skin; Azacytidine 25 ug/ml): 174 +/− 53* DPM/mg tissue
% Inhibition of collagen (pieces of human skin; Azacytidine 100 ug/ml): 72%
Collagen (DPM/mg tissue) (pieces of human skin; Azacytidine 100 ug/ml): 92 +/− 13* DPM/mg tissue
